# Test results taken from patent US20200172529A1, “Chemical Compound, Pharmaceutical Composition Thereof, and Use and Application Thereof” (Beijing Hanmi Pharm. Co., Ltd., priority 2017, published 2020).
# Columns and labels:
# Type in all cases: biochemical
# JAK1 kinase = JAK1 kinase (Homo sapiens, UniProt P23458); assay: Inhibition assay of JAK1 kinase activity (ADP-Glo Kinase Assay)
# Text: Inhibition assay of JAK1 kinase activity: the method in ADP-Glo™ Kinase Assay (Promega, V9102) was used to determine the inhibitory activity of the test compounds against JAK1 kinase.
# JAK2 kinase = JAK2 kinase (Homo sapiens, UniProt O60674); assay: Inhibition assay of JAK2 kinase activity (ADP-Glo Kinase Assay)
# JAK2 kinase, sequence (O60674 whole entry): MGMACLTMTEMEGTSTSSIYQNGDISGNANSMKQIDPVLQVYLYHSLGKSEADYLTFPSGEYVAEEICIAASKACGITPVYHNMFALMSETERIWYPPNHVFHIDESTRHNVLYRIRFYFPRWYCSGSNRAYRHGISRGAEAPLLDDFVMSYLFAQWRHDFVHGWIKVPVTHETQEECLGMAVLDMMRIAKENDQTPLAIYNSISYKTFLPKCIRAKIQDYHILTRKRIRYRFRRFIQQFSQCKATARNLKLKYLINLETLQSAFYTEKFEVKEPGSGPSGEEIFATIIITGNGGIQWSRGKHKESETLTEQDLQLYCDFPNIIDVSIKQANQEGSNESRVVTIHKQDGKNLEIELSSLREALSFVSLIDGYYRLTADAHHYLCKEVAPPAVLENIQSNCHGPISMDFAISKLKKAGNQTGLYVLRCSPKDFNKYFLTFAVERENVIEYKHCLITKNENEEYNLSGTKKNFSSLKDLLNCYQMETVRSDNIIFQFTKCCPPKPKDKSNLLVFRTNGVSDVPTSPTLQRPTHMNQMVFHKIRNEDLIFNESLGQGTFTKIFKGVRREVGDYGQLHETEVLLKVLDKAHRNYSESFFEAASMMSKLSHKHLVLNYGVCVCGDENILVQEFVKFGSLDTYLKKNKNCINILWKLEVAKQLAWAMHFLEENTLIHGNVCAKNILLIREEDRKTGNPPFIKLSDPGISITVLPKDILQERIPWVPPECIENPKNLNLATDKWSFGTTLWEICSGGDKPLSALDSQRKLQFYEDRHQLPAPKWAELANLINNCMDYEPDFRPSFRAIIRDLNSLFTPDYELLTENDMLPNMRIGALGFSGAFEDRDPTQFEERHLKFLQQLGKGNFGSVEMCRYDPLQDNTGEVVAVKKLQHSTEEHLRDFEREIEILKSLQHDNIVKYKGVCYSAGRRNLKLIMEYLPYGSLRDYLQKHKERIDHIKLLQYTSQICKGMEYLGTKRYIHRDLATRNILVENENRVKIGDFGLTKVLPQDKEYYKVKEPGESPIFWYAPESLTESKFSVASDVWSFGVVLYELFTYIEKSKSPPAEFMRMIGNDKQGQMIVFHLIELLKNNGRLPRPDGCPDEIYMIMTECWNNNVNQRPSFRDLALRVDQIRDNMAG
# Text: Inhibition assay of JAK2 kinase activity: the method in ADP-Glo™ Kinase Assay (Promega, V9102) was used to determine the inhibitory activity of the test compounds against JAK2 kinase.
# JAK3 kinase = target: T1, JAK3 kinase (Homo sapiens, UniProt P52333); assay: Inhibition assay of JAK3 kinase activity (ADP-Glo Kinase Assay)
# T1 sequence (P52333 1-1124): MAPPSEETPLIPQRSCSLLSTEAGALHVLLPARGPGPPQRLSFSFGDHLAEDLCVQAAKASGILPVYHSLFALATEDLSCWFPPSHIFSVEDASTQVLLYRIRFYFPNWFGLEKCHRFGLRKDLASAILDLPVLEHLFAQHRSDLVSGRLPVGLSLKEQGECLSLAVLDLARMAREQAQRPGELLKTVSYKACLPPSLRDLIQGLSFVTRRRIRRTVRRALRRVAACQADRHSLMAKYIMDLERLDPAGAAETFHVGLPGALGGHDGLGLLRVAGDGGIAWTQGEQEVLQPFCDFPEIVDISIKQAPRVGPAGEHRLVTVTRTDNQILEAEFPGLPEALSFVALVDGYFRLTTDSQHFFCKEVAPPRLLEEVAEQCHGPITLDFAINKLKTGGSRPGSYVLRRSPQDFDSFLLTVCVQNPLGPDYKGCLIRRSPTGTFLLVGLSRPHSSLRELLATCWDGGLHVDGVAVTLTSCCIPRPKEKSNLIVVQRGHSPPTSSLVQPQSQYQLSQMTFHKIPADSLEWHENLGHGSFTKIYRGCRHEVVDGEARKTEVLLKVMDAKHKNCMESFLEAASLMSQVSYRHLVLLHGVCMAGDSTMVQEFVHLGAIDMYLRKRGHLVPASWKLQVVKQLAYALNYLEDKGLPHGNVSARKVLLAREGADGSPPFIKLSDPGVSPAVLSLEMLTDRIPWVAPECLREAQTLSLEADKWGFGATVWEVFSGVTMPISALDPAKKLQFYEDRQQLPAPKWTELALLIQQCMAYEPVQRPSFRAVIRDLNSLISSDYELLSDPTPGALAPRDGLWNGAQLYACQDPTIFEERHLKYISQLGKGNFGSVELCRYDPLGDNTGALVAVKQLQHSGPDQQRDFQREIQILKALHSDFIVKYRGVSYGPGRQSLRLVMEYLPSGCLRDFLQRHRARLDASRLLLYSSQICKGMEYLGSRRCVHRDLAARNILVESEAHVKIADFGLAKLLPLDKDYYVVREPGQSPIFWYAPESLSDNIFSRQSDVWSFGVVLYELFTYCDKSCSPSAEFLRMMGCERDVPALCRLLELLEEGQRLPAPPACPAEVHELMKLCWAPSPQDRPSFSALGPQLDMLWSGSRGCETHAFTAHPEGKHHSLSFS
# Text: Inhibition assay of JAK3 kinase activity: the method in ADP-Glo™ Kinase Assay (Promega, V9102) was used to determine the inhibitory activity of the test compounds against JAK3 kinase.
# TYK2 kinase = target: T2, TYK2 kinase (Homo sapiens, UniProt P29597); assay: Inhibition assay of TYK2 kinase activity (ADP-Glo Kinase Assay)
# T2 construct: purchased Life Technologies PR8440C
# T2 sequence (P29597 whole entry): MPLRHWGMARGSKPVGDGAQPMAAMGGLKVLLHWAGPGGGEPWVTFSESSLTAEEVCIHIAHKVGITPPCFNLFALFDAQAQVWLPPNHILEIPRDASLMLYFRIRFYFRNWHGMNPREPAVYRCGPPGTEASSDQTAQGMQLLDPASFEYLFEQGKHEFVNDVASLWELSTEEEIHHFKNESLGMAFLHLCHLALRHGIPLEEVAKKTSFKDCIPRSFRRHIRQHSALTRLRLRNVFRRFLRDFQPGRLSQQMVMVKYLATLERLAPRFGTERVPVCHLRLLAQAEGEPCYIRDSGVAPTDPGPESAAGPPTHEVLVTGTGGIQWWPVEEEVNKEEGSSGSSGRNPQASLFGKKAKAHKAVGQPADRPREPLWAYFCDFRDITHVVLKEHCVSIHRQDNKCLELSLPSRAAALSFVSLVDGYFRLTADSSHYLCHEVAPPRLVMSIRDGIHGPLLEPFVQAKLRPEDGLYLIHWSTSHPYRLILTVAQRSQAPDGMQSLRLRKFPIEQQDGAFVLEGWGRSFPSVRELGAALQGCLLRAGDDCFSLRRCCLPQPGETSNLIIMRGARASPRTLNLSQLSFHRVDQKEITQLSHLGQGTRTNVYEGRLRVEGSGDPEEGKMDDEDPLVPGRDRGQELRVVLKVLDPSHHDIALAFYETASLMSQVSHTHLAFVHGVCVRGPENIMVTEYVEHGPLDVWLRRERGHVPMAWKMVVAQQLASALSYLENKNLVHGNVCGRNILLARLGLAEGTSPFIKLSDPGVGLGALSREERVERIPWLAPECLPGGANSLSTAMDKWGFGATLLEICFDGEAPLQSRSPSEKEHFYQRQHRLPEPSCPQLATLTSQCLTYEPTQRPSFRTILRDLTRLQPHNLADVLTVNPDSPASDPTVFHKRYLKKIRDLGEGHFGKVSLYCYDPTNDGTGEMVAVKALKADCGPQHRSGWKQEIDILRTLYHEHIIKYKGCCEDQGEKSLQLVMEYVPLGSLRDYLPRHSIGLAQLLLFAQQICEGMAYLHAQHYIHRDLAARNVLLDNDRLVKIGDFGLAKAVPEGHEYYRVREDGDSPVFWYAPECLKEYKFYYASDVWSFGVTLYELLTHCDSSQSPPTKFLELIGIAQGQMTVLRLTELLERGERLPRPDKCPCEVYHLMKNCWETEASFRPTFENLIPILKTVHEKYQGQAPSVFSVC
# Method in brief: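 Enzyme at 0.8 ng/mL (2-fold final) in 40 mM Tris-HCl pH 7.5, 20 mM MgCl2, 0.1 mg/mL BSA, 1 mM DTT, preincubated 10 min with compound (6 points, 10-fold dilutions from 10 μM). ATP plus polyE4Y1 then added for 60 min at room temperature. ADP-Glo luminescence read and IC50 derived.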
# SYK kinase = SYK kinase (Homo sapiens, UniProt P43405); assay: Inhibition assay of SYK kinase activity (ADP-Glo Kinase Assay)
# Text: Inhibition assay of SYK kinase activity: the method in ADP-Glo™ Kinase Assay (Promega, V9102) was used to determine the inhibitory activity of the test compounds against SYK kinase.
# JAK1 kinase, sequence (P23458 whole entry): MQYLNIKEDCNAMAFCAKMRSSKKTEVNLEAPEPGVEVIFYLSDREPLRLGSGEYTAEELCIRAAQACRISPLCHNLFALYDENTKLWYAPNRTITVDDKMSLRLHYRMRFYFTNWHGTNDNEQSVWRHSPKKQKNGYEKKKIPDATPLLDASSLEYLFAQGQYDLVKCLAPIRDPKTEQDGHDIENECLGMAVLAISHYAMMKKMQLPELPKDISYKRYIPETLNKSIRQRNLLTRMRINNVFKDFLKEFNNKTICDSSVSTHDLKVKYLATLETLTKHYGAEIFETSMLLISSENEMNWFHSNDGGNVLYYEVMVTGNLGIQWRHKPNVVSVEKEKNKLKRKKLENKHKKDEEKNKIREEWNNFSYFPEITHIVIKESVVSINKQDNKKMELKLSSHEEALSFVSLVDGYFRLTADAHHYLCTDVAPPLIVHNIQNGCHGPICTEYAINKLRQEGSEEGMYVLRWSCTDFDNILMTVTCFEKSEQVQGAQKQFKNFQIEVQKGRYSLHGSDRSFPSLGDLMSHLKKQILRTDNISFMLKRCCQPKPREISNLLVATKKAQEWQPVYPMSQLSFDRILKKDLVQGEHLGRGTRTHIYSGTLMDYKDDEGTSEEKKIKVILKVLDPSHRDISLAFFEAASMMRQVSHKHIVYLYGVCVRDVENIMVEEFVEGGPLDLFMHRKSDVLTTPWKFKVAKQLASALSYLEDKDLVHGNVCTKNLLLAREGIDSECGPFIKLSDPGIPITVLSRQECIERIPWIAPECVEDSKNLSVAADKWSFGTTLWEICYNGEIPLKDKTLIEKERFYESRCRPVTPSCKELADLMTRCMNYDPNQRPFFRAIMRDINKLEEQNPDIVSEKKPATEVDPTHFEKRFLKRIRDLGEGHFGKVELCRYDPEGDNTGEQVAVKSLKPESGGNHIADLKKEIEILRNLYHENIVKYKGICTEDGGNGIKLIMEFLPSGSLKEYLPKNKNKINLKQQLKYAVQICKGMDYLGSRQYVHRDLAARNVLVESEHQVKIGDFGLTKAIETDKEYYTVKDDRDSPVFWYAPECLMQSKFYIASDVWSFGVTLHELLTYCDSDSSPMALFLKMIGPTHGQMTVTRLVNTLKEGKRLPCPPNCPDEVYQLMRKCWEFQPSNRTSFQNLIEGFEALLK
IC50 (JAK1 kinase),IC50 (JAK2 kinase),IC50 (JAK3 kinase),IC50 (TYK2 kinase),IC50 (SYK kinase),SMILES
< 10 nM,10 to 100 nM,10 to 100 nM,< 10 nM,10 to 100 nM,"NC(=O)c1cnc(Nc2ccc3c(c2)NC[C@H](O)CO3)nc1NC1CC1F (stereo partly drawn) [Example 57, 4-((2-fluorocyclopropyl)amino)-2-(((S)-2,3,4,5-tetrahydro-3-hydroxybenzo[b][1,4]oxazepin-7-yl)amino)pyrimidin-5-carboxamide]"
< 10 nM,10 to 100 nM,10 to 100 nM,< 10 nM,10 to 100 nM,"CCCNc1nc(Nc2ccc3c(c2)NC[C@H](O)CO3)ncc1C(N)=O [Example 69, 4-(propylamino)-2-(((S)-2,3,4,5-tetrahydro-3-hydroxybenzo[b][1,4]oxazepin-7-yl)amino)pyrimidin-5-carboxamide]"
< 10 nM,10 to 100 nM,10 to 100 nM,< 10 nM,10 to 100 nM,"COCCOCCO[C@H]1CNc2cc(Nc3ncc(C(N)=O)c(NC4CC4)n3)ccc2OC1 [Example 89, 4-(cyclopropylamino)-2-(((S)-2,3,4,5-tetrahydro-3-(2-(2-methoxyethoxy)ethoxy)benzo[b][1,4]oxazepin-7-yl)amino)pyrimidin-5-carboxamide]"
< 10 nM,< 10 nM,10 to 100 nM,< 10 nM,10 to 100 nM,"NC(=O)c1cnc(Nc2ccc3c(c2)NC[C@H](OCC(=O)O)CO3)nc1NC1CC1 [Example 94, 4-(cyclopropylamino)-2-(((S)-2,3,4,5-tetrahydro-3-(carboxymethoxy)benzo[b][1,4]oxazepin-7-yl)amino)pyrimidin-5-carboxamide]"
